Test results taken from patent US20240025862A1, “SUBSTITUTED N-PHENYLURACILS AND SALTS THEREOF, AND USE THEREOF AS HERBICIDAL ACTIVE SUBSTANCES” (Bayer Aktiengesellschaft, priority 2020, published 2024).
One block for each compound: values may come before it.

Assays:
Format in all cases: in vivo
Setaria viridis (SETVI) = assay: Post-emergence herbicidal action, greenhouse pot test (also comparative test C)
Outline: (§1)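 Greenhouse pot plants in sandy loam were sprayed post-emergence at the one-leaf stage (2–3 weeks after sowing) with WP or EC formulations plus 0.5% additive at 600 l/ha water. Activity was rated visually after about 3 weeks versus untreated controls (100% = dead, 0% = like control); rates were 20 g/ha or less, and 5 g/ha or less in the comparative test.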

[1] = test system: Alopecurus myosuroides (ALOMY); assay: as above; conditions: rated visually after about 3 weeks vs untreated controls, 100% = plants have died
Outline: as §1

[2] = test system: Matricaria inodora (MATIN); assay: as above
Outline: as §1

Zea mays (ZEAMX) = assay: Post-emergence crop plant compatibility, greenhouse pot test; conditions: 1.25 g/ha, vs untreated controls
Outline: (§2)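 Greenhouse pot test; post-emergence foliar spray at one-leaf stage, WP or EC in water + 0.5% additive, 600 l/ha. Visual rating after ~3 wk, % relative to untreated (0–100%).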

Glycine max (GLXMA) = assay: as above
Outline: as §2

Brassica napus (BRSNW) = assay: as above; conditions: for Post-emergence action against BRSNW (crop plant compatibility): vs untreated controls
Outline: as §2

Viola tricolor (VIOTR) = assay: Post-emergence herbicidal action, greenhouse pot test
Outline: (§3)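 Activity was scored by eye about 3 weeks after treatment against untreated plants, where 100% means dead plants and 0% means no difference. Plants at the one-leaf stage received a foliar spray of WP or EC formulations in water plus 0.5% additive (600 l/ha, up to 20 g/ha). Plants were grown in sandy loam pots in a greenhouse for 2–3 weeks before spraying.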

[3] = test system: Amaranthus retroflexus (AMARE); assay: as above; conditions: rated visually after about 3 weeks vs untreated controls, 100% = plants have died
Outline: as §3

[4] = test system: Pharbitis purpurea (PHBPU); assay: as above
Outline: as §3

Stellaria media (STEME) = assay: as above
Outline: as §3

Veronica persica (VERPE) = assay: as above
Outline: as §3

[5] = test system: Polygonum convolvulus (POLCO); assay: as above
Outline: as §3

[6] = test system: Abutilon theophrasti (ABUTH); assay: as above; conditions: rated visually after about 3 weeks vs untreated controls, 100% = plants have died
Outline: as §3

Oryza sativa (ORYSA) = assay: Post-emergence crop plant compatibility, greenhouse pot test (also comparative test C); conditions: for Post-emergence action against ORYSA (crop plant compatibility): vs untreated controls
Outline: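 Visual damage versus untreated plants (0% = like control, 100% = plants died) was scored about 3 weeks after a post-emergence spray in greenhouse pots. Treatment: one-leaf stage, WP or EC in water at 600 l/ha with 0.5% additive; a/b/c mark different dosages on the same crop.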

[7] = test system: Echinochloa crus-galli (ECHCG); assay: Post-emergence herbicidal action, greenhouse pot test (also comparative test C)
Outline: as §1

Lolium rigidum (LOLRI) = assay: Post-emergence herbicidal action, greenhouse pot test; conditions: Lolium rigidum, 504 h, dosage 20 g/ha, read-out: Post-emergence action against LOLRI in %
Outline: as §3

Avena fatua (AVEFA) = assay: as above; conditions: rated visually after about 3 weeks vs untreated controls, 100% = plants have died
Outline: as §3

[8] = test system: Triticum aestivum (TRZAS); assay: Post-emergence crop plant compatibility, greenhouse pot test; conditions: vs untreated controls
Outline: as §2

- Post-emergence action against ZEAMX (crop plant compatibility) (Zea mays (ZEAMX)): 10%
- Post-emergence action against GLXMA in % (Glycine max (GLXMA); 1.25 g/ha): 10%
- Post-emergence action against GLXMA in % (Glycine max (GLXMA); 5 g/ha): 10%
- Post-emergence action against BRSNW (crop plant compatibility) (Brassica napus (BRSNW); 1.25 g/ha): 20%
- Post-emergence action against ORYSA (crop plant compatibility) (Oryza sativa (ORYSA); 1.25 g/ha): 10%
- Post-emergence action against ORYSA (crop plant compatibility) (Oryza sativa (ORYSA); 5 g/ha): 10%
- Post-emergence action against ORYSA in % (Oryza sativa (ORYSA); 20 g/ha, crop plant compatibility): 20%
Structure (SMILES): CC(Oc1ccccc1Sc1cc(-n2c(=O)cc(C(F)(F)F)n(C)c2=O)c(F)cc1Cl)C(=O)OCCO (racemic) [I.2-58]
- Post-emergence action against SETVI (Setaria viridis (SETVI); 20 g/ha): 100%
- Post-emergence action against SETVI in % (Setaria viridis (SETVI); dosage 1.25 g/ha): 100%
- Post-emergence action against SETVI in % (Setaria viridis (SETVI); dosage 5 g/ha): 100%
- Post-emergence action at 20 g/ha against ALOMY in % ([1]; 20 g/ha): 80%
- Post-emergence action against MATIN in % ([2]; dosage 5 g/ha): 80%
- Post-emergence action against MATIN in % ([2]; dosage 20 g/ha): 90%
- Post-emergence action against VIOTR (Viola tricolor (VIOTR); 1.25 g/ha): 100%
- Post-emergence action against VIOTR (Viola tricolor (VIOTR); 5 g/ha): 100%
- Post-emergence action against VIOTR (Viola tricolor (VIOTR); 20 g/ha): 100%
- Post-emergence action at 1.25 g/ha against AMARE in % [3]: 90%
- Post-emergence action at 5 g/ha against AMARE in % ([3]; 5 g/ha): 100%
- Post-emergence action at 20 g/ha against AMARE in % ([3]; 20 g/ha): 100%
- Post-emergence action against PHBPU in % ([4]; dosage 5 g/ha): 80%
- Post-emergence action against PHBPU in % ([4]; dosage 20 g/ha): 100%
- Post-emergence action against STEME (Stellaria media (STEME); 5 g/ha): 100%
- Post-emergence action against STEME (Stellaria media (STEME); 20 g/ha): 100%
- Post-emergence action against VERPE (Veronica persica (VERPE); 5 g/ha): 80%
- Post-emergence action against VERPE (Veronica persica (VERPE); 20 g/ha): 100%
- Post-emergence action against POLCO in % ([5]; dosage 1.25 g/ha): 100%
- Post-emergence action against POLCO in % ([5]; dosage 5 g/ha): 100%
- Post-emergence action against POLCO in % ([5]; dosage 20 g/ha): 100%
- Post-emergence action at 1.25 g/ha against ABUTH in % ([6]; 1.25 g/ha): 100%
- Post-emergence action at 5 g/ha against ABUTH in % ([6]; 5 g/ha): 100%
- Post-emergence action at 20 g/ha against ABUTH in % ([6]; 20 g/ha): 100%

- Post-emergence action against BRSNW (crop plant compatibility) (Brassica napus (BRSNW); 20 g/ha): 20%
Structure (SMILES): Cn1c(C(F)(F)F)cc(=O)n(-c2cc(Oc3ccccc3OCC(=O)OCC#N)c(Cl)cc2F)c1=O [I.7-176, Cyanomethyl (2-{2-chloro-4-fluoro-5-[3-methyl-2,6-dioxo-4-(trifluoromethyl)-3,6-dihydropyrimidin-1(2H)-yl]phenoxy}phenoxy)acetate]
- pest or weed control at 5 g/ha ([7]; Echinochloa crus-galli, 504 h, dosage 5 g/ha, read-out: Post-emergence action against ECHCG in %): 100%
- pest or weed control at 20 g/ha ([7]; Echinochloa crus-galli, 504 h, dosage 20 g/ha, read-out: Post-emergence action against ECHCG in %): 100%
- pest or weed control at 20 g/ha (Setaria viridis (SETVI); Setaria viridis, 504 h, 20 g/ha, read-out: Post-emergence action against SETVI): 100%
- pest or weed control at 5 g/ha (Setaria viridis (SETVI); Setaria viridis, 504 h, dosage 5 g/ha, read-out: Post-emergence action against SETVI in %): 100%
- pest or weed control at 5 g/ha ([1]; Alopecurus myosuroides, 504 h, 5 g/ha, read-out: Post-emergence action at 5 g/ha against ALOMY in %): 100%
- pest or weed control at 20 g/ha ([1]; Alopecurus myosuroides, 504 h, 20 g/ha, read-out: Post-emergence action at 20 g/ha against ALOMY in %): 100%
- pest or weed control at 5 g/ha ([2]; Tripleurospermum inodorum, 504 h, dosage 5 g/ha, read-out: Post-emergence action against MATIN in %): 90%
- pest or weed control at 20 g/ha ([2]; Tripleurospermum inodorum, 504 h, dosage 20 g/ha, read-out: Post-emergence action against MATIN in %): 100%
- Post-emergence action at 5 g/ha against BRSNW in % (Brassica napus (BRSNW); 5 g/ha, crop plant compatibility, observed effects on crop plant in comparison to untreated controls): 20%
- pest or weed control at 5 g/ha (Viola tricolor (VIOTR); Viola tricolor, 504 h, 5 g/ha, read-out: Post-emergence action against VIOTR): 100%
- pest or weed control at 20 g/ha (Viola tricolor (VIOTR); Viola tricolor, 504 h, 20 g/ha, read-out: Post-emergence action against VIOTR): 100%
- pest or weed control at 5 g/ha ([3]; Amaranthus retroflexus, 504 h, 5 g/ha, read-out: Post-emergence action at 5 g/ha against AMARE in %): 100%
- pest or weed control at 20 g/ha ([3]; Amaranthus retroflexus, 504 h, 20 g/ha, read-out: Post-emergence action at 20 g/ha against AMARE in %): 100%
- pest or weed control at 20 g/ha (Lolium rigidum (LOLRI)): 80%
- pest or weed control at 5 g/ha ([4]; Ipomoea purpurea, 504 h, dosage 5 g/ha, read-out: Post-emergence action against PHBPU in %): 100%
- pest or weed control at 20 g/ha ([4]; Ipomoea purpurea, 504 h, dosage 20 g/ha, read-out: Post-emergence action against PHBPU in %): 100%
- pest or weed control at 5 g/ha (Veronica persica (VERPE); Veronica persica, 504 h, 5 g/ha, read-out: Post-emergence action against VERPE): 100%
- pest or weed control at 20 g/ha (Veronica persica (VERPE); Veronica persica, 504 h, 20 g/ha, read-out: Post-emergence action against VERPE): 100%
- Post-emergence action at 5 g/ha against AVEFA in % (Avena fatua (AVEFA); 5 g/ha): 80%
- pest or weed control at 20 g/ha (Avena fatua (AVEFA); Avena fatua, 504 h, 20 g/ha, read-out: Post-emergence action at 20 g/ha against AVEFA in %): 100%
- pest or weed control at 5 g/ha ([5]; Fallopia convolvulus, 504 h, dosage 5 g/ha, read-out: Post-emergence action against POLCO in %): 100%
- pest or weed control at 20 g/ha ([5]; Fallopia convolvulus, 504 h, dosage 20 g/ha, read-out: Post-emergence action against POLCO in %): 100%
- pest or weed control at 5 g/ha ([6]; Abutilon theophrasti, 504 h, 5 g/ha, read-out: Post-emergence action at 5 g/ha against ABUTH in %): 100%
- pest or weed control at 20 g/ha ([6]; Abutilon theophrasti, 504 h, 20 g/ha, read-out: Post-emergence action at 20 g/ha against ABUTH in %): 100%

- Post-emergence action against GLXMA in % (Glycine max (GLXMA); 1.25 g/ha): 10%
- Post-emergence action against BRSNW (crop plant compatibility) (Brassica napus (BRSNW); 1.25 g/ha): 10%
- Post-emergence action against TRZAS (crop plant compatibility) ([8]; 1.25 g/ha): 20%
- Post-emergence action against TRZAS (crop plant compatibility) ([8]; 5 g/ha): 20%
- Post-emergence action against ORYSA (crop plant compatibility) (Oryza sativa (ORYSA); 1.25 g/ha): 20%
- Post-emergence action against ORYSA (crop plant compatibility) (Oryza sativa (ORYSA); 5 g/ha): 20%
Structure (SMILES): CC(Oc1ccccc1Sc1cc(-n2c(=O)cc(C(F)(F)F)n(C)c2=O)c(F)cc1Cl)C(=O)OCC1CCCO1 (mixture of isomers) [I.2-71]
- Post-emergence action against ECHCG in % ([7]; dosage 20 g/ha): 80%
- Post-emergence action against SETVI (Setaria viridis (SETVI); 20 g/ha): 100%
- Post-emergence action against SETVI in % (Setaria viridis (SETVI); dosage 1.25 g/ha): 90%
- Post-emergence action against SETVI in % (Setaria viridis (SETVI); dosage 5 g/ha): 100%
- Post-emergence action at 20 g/ha against ALOMY in % ([1]; 20 g/ha): 80%
- Post-emergence action against MATIN in % ([2]; dosage 5 g/ha): 80%
- Post-emergence action against MATIN in % ([2]; dosage 20 g/ha): 90%
- Post-emergence action against VIOTR (Viola tricolor (VIOTR); 1.25 g/ha): 100%
- Post-emergence action against VIOTR (Viola tricolor (VIOTR); 5 g/ha): 100%
- Post-emergence action against VIOTR (Viola tricolor (VIOTR); 20 g/ha): 100%
- Post-emergence action at 1.25 g/ha against AMARE in % [3]: 100%
- Post-emergence action at 5 g/ha against AMARE in % ([3]; 5 g/ha): 100%
- Post-emergence action at 20 g/ha against AMARE in % ([3]; 20 g/ha): 100%
- Post-emergence action against PHBPU in % ([4]; dosage 1.25 g/ha): 80%
- Post-emergence action against PHBPU in % ([4]; dosage 5 g/ha): 100%
- Post-emergence action against PHBPU in % ([4]; dosage 20 g/ha): 100%
- Post-emergence action against STEME (Stellaria media (STEME); 5 g/ha): 100%
- Post-emergence action against STEME (Stellaria media (STEME); 20 g/ha): 100%
- Post-emergence action against VERPE (Veronica persica (VERPE); 1.25 g/ha): 100%
- Post-emergence action against VERPE (Veronica persica (VERPE); 5 g/ha): 100%
- Post-emergence action against VERPE (Veronica persica (VERPE); 20 g/ha): 100%
- Post-emergence action against POLCO in % ([5]; dosage 5 g/ha): 100%
- Post-emergence action against POLCO in % ([5]; dosage 20 g/ha): 100%
- Post-emergence action at 5 g/ha against ABUTH in % ([6]; 5 g/ha): 100%
- Post-emergence action at 20 g/ha against ABUTH in % ([6]; 20 g/ha): 100%
